Consider three molecules from patent US5856318A (priority 1997, dated 1999).

The target of one assay is T1, sigma receptor (Cavia porcellus, UniProt Q60492).
T1 construct: Crude P2 membrane fractions were prepared from frozen; tissue Pel-Freeze, Rogers, Ark; (frozen guinea pig brains); host or cells: guinea pig brain minus cerebella, crude synaptosomal (P2) membranes
It counts as binding, guinea pig. The following applies: read-out: Ki([3H](+)-Pent).

In the next assay the test system is NMDA receptor. The note with it: C. Carter et al, J. Pharm Exp. Ther. 1988; cited from earlier work.

T1 sequence (Q60492 whole entry): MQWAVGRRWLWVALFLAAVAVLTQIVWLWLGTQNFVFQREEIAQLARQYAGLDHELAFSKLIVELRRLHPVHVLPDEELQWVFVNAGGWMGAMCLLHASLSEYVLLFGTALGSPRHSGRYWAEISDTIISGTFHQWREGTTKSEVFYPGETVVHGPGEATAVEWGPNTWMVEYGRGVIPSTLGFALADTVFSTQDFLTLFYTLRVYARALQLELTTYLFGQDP

What is called Ki is the dissociation constant of the complex between target and ligand, obtained from inhibition or displacement. As to `Clc1ccc(CCN2CCCC(N3CCCC3)C2)cc1Cl` (stereo not drawn) [Compound No. 1, 3-(1-Pyrrolidinyl)-1-[2-(3,4-dichlorophenyl)ethyl]piperidine], the inhibition constant (Ki) on sigma receptor is 3.56 ± 1.56 nM.
As for `CC(C(O)c1ccc(O)cc1)N1CCC(Cc2ccccc2)CC1` (stereo not drawn) [ifenprodil], the NMDA receptor antagonism result in the assay on NMDA receptor is given as “non-competitive NMDA receptor antagonists”.
Consider “1-(4-chlorophenyl)-2-[1-(4-fluorophenyl)-piperidinyl]ethanol”, for which, in the assay on NMDA receptor, the NMDA receptor antagonism result is listed as “non-competitive NMDA receptor antagonists”.
